*1 amine or outer side, *2 acyl side, *3 side chain or, on linkers, in order; H or OH if unused. Where a SMILES comes first, the peptide text is derived from it. Side-chain parts run from the residue outwards. [ ]: non-standard residue; d: D form. The star is where a group is joined. C18 diacid = O=C(O)CCCCCCCCCCCCCCCCC(=O)*; C16 diacid = O=C(O)CCCCCCCCCCCCCCC(=O)*; γGlu = O=C(O)[C@H](CCC(=O)[*:2])N[*:1]; C14 diacid = O=C(O)CCCCCCCCCCCCC(=O)*; NMeI = CC[C@H](C)[C@H](NC)C(=O)O; Ac5c = NC1(C(=O)O)CCCC1; Dap = NC[C@H](N)C(=O)O; AEEA = NCCOCCOCC(=O)O; Aib = CC(C)(N)C(=O)O
Legend:
human CRF2a receptor = molecular target: T1, human CRF2a receptor (Homo sapiens, UniProt Q13324); experiment: Activity at human CRF2a receptor, cAMP functional assay in TeloHEAC cells; format: cell-based; settings: TeloHEAC cells stably expressing human CRF2a receptor, relative to urocortin 2 (100 nM = 100%)
T1 construct: expressed in transfected cells; host or cells: TeloHEAC cells
T1 sequence (Q13324 1-411): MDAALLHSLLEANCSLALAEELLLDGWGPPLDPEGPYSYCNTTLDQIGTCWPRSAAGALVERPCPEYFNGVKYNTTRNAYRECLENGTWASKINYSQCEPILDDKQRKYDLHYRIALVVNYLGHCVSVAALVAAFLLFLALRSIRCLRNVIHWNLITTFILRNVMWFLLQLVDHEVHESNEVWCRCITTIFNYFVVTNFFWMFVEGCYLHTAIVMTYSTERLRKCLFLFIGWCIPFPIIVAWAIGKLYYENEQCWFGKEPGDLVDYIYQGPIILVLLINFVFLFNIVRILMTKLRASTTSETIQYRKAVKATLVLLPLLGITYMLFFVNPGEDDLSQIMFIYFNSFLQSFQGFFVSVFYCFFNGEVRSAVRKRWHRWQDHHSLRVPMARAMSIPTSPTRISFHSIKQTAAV
Summary of the method: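 TeloHEAC cells stably expressing human CRF2a (10000 cells/well) were treated with 16-point 1:2 compound dilutions in HBSS/20 mM HEPES with IBMX for 30 min at 37° C. cAMP was read by HTRF (665/620 nm ratio). EC50 was the concentration giving 50% activation, with 100 nM urocortin 2 set as 100%.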

CFR1R receptor = molecular target: T2, CFR1R receptor (Homo sapiens, UniProt P34998); experiment: Activity at anti-target CFR1R receptor, cAMP assay in CRF1R-overexpression CHO-K1 cells; format: cell-based; settings: 100% = Sauvagine at 100 nM; for EC50: cAMP
T2 construct: host or cells: CHO-K1 (clone 2)
T2 sequence (P34998 24-415): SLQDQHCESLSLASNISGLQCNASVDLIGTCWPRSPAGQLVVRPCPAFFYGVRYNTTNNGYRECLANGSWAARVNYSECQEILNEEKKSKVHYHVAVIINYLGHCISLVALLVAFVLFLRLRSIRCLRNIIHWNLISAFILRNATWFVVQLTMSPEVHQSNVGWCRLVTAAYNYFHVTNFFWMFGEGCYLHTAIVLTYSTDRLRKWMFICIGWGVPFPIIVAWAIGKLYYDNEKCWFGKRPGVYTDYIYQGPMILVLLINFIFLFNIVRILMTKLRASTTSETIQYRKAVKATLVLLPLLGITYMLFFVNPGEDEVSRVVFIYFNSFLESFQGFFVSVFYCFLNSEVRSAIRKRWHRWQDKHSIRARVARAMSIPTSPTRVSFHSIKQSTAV
Summary of the method: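 Uses frozen stocks of CHO-K1 clone 2 cells overexpressing human CRF1R, plated at 4000 cells/well final, with cAMP measured by the same protocol as the TeloHAEC line. Full-activation control: 100 nM Sauvagine.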

SMILES | EC50 (human CRF2a receptor) | Emax (% I) (CFR1R receptor) | EC50 (CFR1R receptor)
CC[C@H](C)[C@H](NC(C)=O)C(=O)N[C@H](C(=O)N[C@@H](CC(C)C)C(=O)N[C@@H](CO)C(=O)N[C@@H](CC(C)C)C(=O)N[C@@H](CC(=O)O)C(=O)N[C@@H](C(=O)N1CCC[C@H]1C(=O)N[C@H](C(=O)N[C@@H](CCCCN)C(=O)N[C@@H](CC(C)C)C(=O)N[C@@H](CCCCNC(=O)CC[C@H](NC(=O)CCCCCCCCCCCCCCCCC(=O)O)C(=O)O)C(=O)N[C@@H](CCCCN)C(=O)N[C@H](C(=O)N[C@@H](CC(C)C)C(=O)N[C@@H](CC(C)C)C(=O)N[C@@H](CCC(=O)O)C(=O)N[C@@H](CCC(N)=O)C(=O)N[C@@H](CCC(=O)O)C(=O)N[C@@H](CCCCN)C(=O)N[C@@H](CCC(N)=O)C(=O)N[C@@H](CCCCN)C(=O)N[C@@H](CCCCN)C(=O)N[C@@H](CCC(N)=O)C(=O)N[C@@H](CCCNC(=N)N)C(=O)N[C@@H](CCC(=O)O)C(=O)N[C@@H](CCC(N)=O)C(=O)N[C@@H](C)C(=O)N[C@@H](CCC(=O)O)C(=O)N[C@H](C(=O)N[C@@H](CC(N)=O)C(=O)NC1(C(=O)N[C@@H](CCC(N)=O)C(=O)N[C@H](C(=O)N[C@@H](CC(C)C)C(=O)N[C@@H](C)C(=O)N[C@@H](CCC(N)=O)C(=O)N[C@H](C(N)=O)C(C)C)[C@@H](C)CC)CCCC1)[C@@H](C)O)[C@@H](C)CC)[C@@H](C)CC)C(C)C)C(C)C [compound 135] (Ac-IVLSLD[dV]PIKLK([γGlu-C18 diacid])KILLEQEKQKKQREQAETN[Ac5c]QILAQV-NH2) | 0.19 nM | 15 % I | > 250 nM
CC[C@H](C)[C@H](NC(C)=O)C(=O)N[C@H](C(=O)N[C@@H](CC(C)C)C(=O)N[C@@H](CO)C(=O)N[C@@H](CC(C)C)C(=O)N[C@@H](CC(=O)O)C(=O)N[C@@H](C(=O)N1CCC[C@H]1C(=O)N[C@H](C(=O)N[C@@H](CCCCN)C(=O)N[C@@H](CC(C)C)C(=O)N[C@@H](CCCCNC(=O)COCCOCCNC(=O)COCCOCCNC(=O)CC[C@H](NC(=O)CCCCCCCCCCCCCCCCC(=O)O)C(=O)O)C(=O)N[C@@H](CCCCN)C(=O)N[C@H](C(=O)N[C@@H](CC(C)C)C(=O)N[C@@H](CC(C)C)C(=O)N[C@@H](CCC(=O)O)C(=O)N[C@@H](CCC(N)=O)C(=O)N[C@@H](CCC(=O)O)C(=O)N[C@@H](CCCCN)C(=O)N[C@@H](CCC(N)=O)C(=O)N[C@@H](CCCCN)C(=O)N[C@@H](CCCCN)C(=O)N[C@@H](CCC(N)=O)C(=O)N[C@@H](CCCNC(=N)N)C(=O)N[C@@H](CCC(=O)O)C(=O)N[C@@H](CCC(N)=O)C(=O)N[C@@H](C)C(=O)N[C@@H](CCC(=O)O)C(=O)N[C@H](C(=O)N[C@@H](CC(N)=O)C(=O)N[C@@H](CN)C(=O)N[C@@H](CCC(N)=O)C(=O)N[C@H](C(=O)N[C@@H](CC(C)C)C(=O)N[C@@H](C)C(=O)N[C@@H](CCC(N)=O)C(=O)N[C@H](C(N)=O)C(C)C)[C@@H](C)CC)[C@@H](C)O)[C@@H](C)CC)[C@@H](C)CC)C(C)C)C(C)C [compound 107] (Ac-IVLSLD[dV]PIKLK([AEEA-AEEA-γGlu-C18 diacid])KILLEQEKQKKQREQAETN[Dap]QILAQV-NH2) | 1.43 nM | 0 % I | > 250 nM
CC[C@H](C)[C@H](NC(C)=O)C(=O)N[C@H](C(=O)N[C@@H](CC(C)C)C(=O)N[C@@H](CO)C(=O)N[C@@H](CC(C)C)C(=O)N[C@@H](CC(=O)O)C(=O)N[C@@H](C(=O)N1CCC[C@H]1C(=O)N[C@H](C(=O)N[C@@H](C)C(=O)N[C@@H](CC(C)C)C(=O)N[C@@H](CCCCNC(=O)CC[C@H](NC(=O)CCCCCCCCCCCCCCC(=O)O)C(=O)O)C(=O)N[C@@H](CCCCN)C(=O)N[C@H](C(=O)N[C@@H](CC(C)C)C(=O)N[C@@H](CC(C)C)C(=O)N[C@@H](CCC(=O)O)C(=O)N[C@@H](CCC(N)=O)C(=O)N[C@@H](CCC(=O)O)C(=O)N[C@@H](CCCCN)C(=O)N[C@@H](CCC(N)=O)C(=O)N[C@@H](CCCCN)C(=O)N[C@@H](CCCCN)C(=O)N[C@@H](CCC(N)=O)C(=O)N[C@@H](CCCNC(=N)N)C(=O)N[C@@H](CCC(=O)O)C(=O)N[C@@H](CCC(N)=O)C(=O)N[C@@H](C)C(=O)N[C@@H](CCC(=O)O)C(=O)N[C@H](C(=O)N[C@@H](CC(N)=O)C(=O)NC(C)(C)C(=O)N[C@@H](CCC(N)=O)C(=O)N[C@H](C(=O)N[C@@H](CC(C)C)C(=O)N[C@@H](C)C(=O)N[C@@H](CCC(N)=O)C(=O)N[C@H](C(N)=O)C(C)C)[C@@H](C)CC)[C@@H](C)O)[C@@H](C)CC)[C@@H](C)CC)C(C)C)C(C)C [compound 163] (Ac-IVLSLD[dV]PIALK([γGlu-C16 diacid])KILLEQEKQKKQREQAETN[Aib]QILAQV-NH2) | 0.3 nM | 53 % I | –
CC[C@H](C)[C@H](NC)C(=O)N[C@H](C(=O)N[C@@H](CC(C)C)C(=O)N[C@@H](CO)C(=O)N[C@@H](CC(C)C)C(=O)N[C@@H](CC(=O)O)C(=O)N[C@@H](C(=O)N1CCC[C@H]1C(=O)N[C@H](C(=O)N[C@@H](CCCCN)C(=O)N[C@@H](CC(C)C)C(=O)N[C@@H](CCCCNC(=O)COCCOCCNC(=O)COCCOCCNC(=O)CC[C@H](NC(=O)CC[C@H](NC(=O)CCCCCCCCCCCCC(=O)O)C(=O)O)C(=O)O)C(=O)N[C@@H](CCCCN)C(=O)N[C@H](C(=O)N[C@@H](CC(C)C)C(=O)N[C@@H](CC(C)C)C(=O)N[C@@H](CCC(=O)O)C(=O)N[C@@H](CCC(N)=O)C(=O)N[C@@H](CCC(=O)O)C(=O)N[C@@H](CCCCN)C(=O)N[C@@H](CCC(N)=O)C(=O)N[C@@H](CCCCN)C(=O)N[C@@H](CCCCN)C(=O)N[C@@H](CCC(N)=O)C(=O)N[C@@H](CCCNC(=N)N)C(=O)N[C@@H](CCC(=O)O)C(=O)N[C@@H](CCC(N)=O)C(=O)N[C@@H](C)C(=O)N[C@@H](CCC(=O)O)C(=O)N[C@H](C(=O)N[C@@H](CC(N)=O)C(=O)NC(C)(C)C(=O)N[C@@H](CCC(N)=O)C(=O)N[C@H](C(=O)N[C@@H](CC(C)C)C(=O)N[C@@H](C)C(=O)N[C@@H](CCC(N)=O)C(=O)N[C@H](C(N)=O)C(C)C)[C@@H](C)CC)[C@@H](C)O)[C@@H](C)CC)[C@@H](C)CC)C(C)C)C(C)C [compound 179] (H-[NMeI]VLSLD[dV]PIKLK([AEEA-AEEA-γGlu-γGlu-C14 diacid])KILLEQEKQKKQREQAETN[Aib]QILAQV-NH2) | 15.5 nM | −4 % I | > 250 nM
CC[C@H](C)[C@H](NC(C)=O)C(=O)N[C@H](C(=O)N[C@@H](CC(C)C)C(=O)N[C@@H](CO)C(=O)N[C@@H](CC(C)C)C(=O)N[C@@H](CC(=O)O)C(=O)N[C@@H](C(=O)N1CCC[C@H]1C(=O)N[C@H](C(=O)N[C@@H](CCCCN)C(=O)N[C@@H](CC(C)C)C(=O)N[C@@H](CCCCNC(=O)CC[C@H](NC(=O)CCCCCCCCCCCCCCC(=O)O)C(=O)O)C(=O)N[C@@H](CCCCN)C(=O)N[C@H](C(=O)N[C@@H](CC(C)C)C(=O)N[C@@H](CC(C)C)C(=O)N[C@@H](CCC(=O)O)C(=O)N[C@@H](CCC(N)=O)C(=O)N[C@@H](CCC(=O)O)C(=O)N[C@@H](CCCCN)C(=O)N[C@@H](CCC(N)=O)C(=O)N[C@@H](CCCCN)C(=O)N[C@@H](CCCCN)C(=O)N[C@@H](CCC(N)=O)C(=O)N[C@@H](CCCNC(=N)N)C(=O)N[C@@H](CCC(=O)O)C(=O)N[C@@H](CCC(N)=O)C(=O)N[C@@H](C)C(=O)N[C@@H](CCC(=O)O)C(=O)N[C@H](C(=O)N[C@@H](CC(N)=O)C(=O)N[C@@H](CCC(=O)O)C(=O)N[C@@H](CCC(N)=O)C(=O)N[C@H](C(=O)N[C@@H](CC(C)C)C(=O)N[C@@H](C)C(=O)N[C@@H](CCC(N)=O)C(=O)N[C@H](C(N)=O)C(C)C)[C@@H](C)CC)[C@@H](C)O)[C@@H](C)CC)[C@@H](C)CC)C(C)C)C(C)C [compound 56] (Ac-IVLSLD[dV]PIKLK([γGlu-C16 diacid])KILLEQEKQKKQREQAETNEQILAQV-NH2) | 0.3 nM | 3 % I | > 250 nM
